Experimental data published in ChEMBL document CHEMBL1122090, “Species- or isozyme-specific enzyme inhibitors. 7. Selective effects in inhibitions of rat adenylate kinase isozymes by adenosine 5'-phosphate derivatives” (J Med Chem, 1982).

Assays:
[1] = biological target: Adenylate kinase 2, mitochondrial (Rattus norvegicus) (UniProt P29410); assay: Inhibition index was the ratio between KM of AMP and Ki of AK II; type: functional
[2] = biological target: GTP:AMP phosphotransferase AK3, mitochondrial (Rattus norvegicus) (UniProt P29411); assay: Relative Vmax value to rat adenylate kinase III.
[3] = biological target: GTP:AMP phosphotransferase AK3, mitochondrial (Rattus norvegicus) (UniProt P29411); assay: Inhibition index was the ratio between KM of AMP and Ki of AK III; type: functional
[4] = biological target: T1, Adenylate kinase isoenzyme 1 (Rattus norvegicus) (UniProt P39069); assay: Relative Vmax value to Adenylate kinase M isoenzyme (adenylate kinase 1, AK1)
T1 sequence (whole entry): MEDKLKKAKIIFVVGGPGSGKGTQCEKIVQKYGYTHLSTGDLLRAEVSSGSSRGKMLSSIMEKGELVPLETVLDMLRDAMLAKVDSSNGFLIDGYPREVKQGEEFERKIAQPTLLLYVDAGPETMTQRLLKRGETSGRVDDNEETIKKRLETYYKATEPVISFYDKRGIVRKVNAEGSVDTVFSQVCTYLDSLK

[5] = Relative inhibition index was the ratio between AK-M and AK II; type: functional
[6] = Relative inhibition index was the ratio between AK-M and AK III; type: functional
[7] = biological target: Adenylate kinase 2, mitochondrial (Rattus norvegicus) (UniProt P29410); assay: Relative Vmax value to rat adenylate kinase II.
[8] = biological target: T1, Adenylate kinase isoenzyme 1 (Rattus norvegicus); assay: Inhibition index was the ratio between KM of AMP and Ki of AK M; type: functional
[9] = biological target: T1, Adenylate kinase isoenzyme 1 (Rattus norvegicus); assay: Inhibitory constant of compound with Rat adenylate kinase M isozyme at 1.3 mM concentration in the presence of 0.65 mM AMP
[10] = biological target: GTP:AMP phosphotransferase AK3, mitochondrial (Rattus norvegicus) (UniProt P29411); assay: Inhibitory constant of compound with Rat adenylate kinase IIl at 1.3 mM concentration in the presence of 0.65 mM AMP
[11] = biological target: Adenylate kinase 2, mitochondrial (Rattus norvegicus) (UniProt P29410); assay: Relative Vmax value to Adenylate kinase II
[12] = biological target: GTP:AMP phosphotransferase AK3, mitochondrial (Rattus norvegicus) (UniProt P29411); assay: Relative Vmax value to Adenylate kinase III
[13] = system: C[C@H](OP(=O)(O)O)[C@H]1OC(n2cnc3c(N)ncnc32)[C@H](O)[C@@H]1O; assay: (§1) Concentration of compound for half-maximal velocity to Adenylate kinase II; type: functional
[14] = system: CC[C@H](OP(=O)(O)O)[C@H]1OC(n2cnc3c(N)ncnc32)[C@H](O)[C@@H]1O; assay: as §1
[15] = system: C[C@@H]1[C@H](O)[C@@H](COP(=O)(O)O)O[C@H]1n1cnc2c(N)ncnc21; assay: as §1
[16] = system: Nc1nc(Cl)nc2c1ncn2[C@@H]1O[C@H](COP(=O)(O)O)[C@@H](O)[C@H]1O; assay: as §1
[17] = system: Nc1nc(N)c2ncn([C@@H]3O[C@H](COP(=O)(O)O)[C@@H](O)[C@H]3O)c2n1; assay: as §1
[18] = system: CCC[C@H](OP(=O)(O)O)[C@H]1OC(n2cnc3c(N)ncnc32)[C@H](O)[C@@H]1O; assay: as §1
[19] = system: Nc1ncnc2c1ncn2[C@@H]1O[C@H](CCP(=O)(O)O)[C@@H](O)[C@H]1O; assay: as §1
[20] = system: CNc1nc(N)c2ncn([C@@H]3O[C@H](COP(=O)(O)O)[C@@H](O)[C@H]3O)c2n1; assay: as §1
[21] = system: Nc1ncnc2c1ncn2[C@@H]1O[C@H](/C=C/P(=O)(O)O)[C@@H](O)[C@H]1O; assay: as §1
[22] = system: Nc1ncnc2c1ncn2[C@@H]1O[C@H](COP(=O)(O)O)[C@@H](O)[C@H]1O; assay: as §1

Sequence of GTP:AMP phosphotransferase AK3, mitochondrial (Rattus norvegicus) (P29411 whole entry): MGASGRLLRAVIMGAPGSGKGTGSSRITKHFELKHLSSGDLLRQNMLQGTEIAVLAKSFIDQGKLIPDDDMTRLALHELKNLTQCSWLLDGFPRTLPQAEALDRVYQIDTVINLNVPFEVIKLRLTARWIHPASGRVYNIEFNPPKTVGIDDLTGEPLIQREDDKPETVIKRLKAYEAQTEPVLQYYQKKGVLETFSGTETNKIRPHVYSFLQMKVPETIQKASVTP

Inhibition index [1]	Relative Vmax [2]	Inhibition index [3]	Relative Vmax [4]	Relative Vmax [7]	Inhibition index [8]	Compound	Relative inhibition index [5]	Relative inhibition index [6]	other results
0.088	21	0.1	5.6	29	0.11	C[C@@H]1[C@H](O)[C@@H](COP(=O)(O)O)O[C@H]1n1cnc2c(N)ncnc21	1.2	1.1	
	0		0	0		COP(=O)(O)C[C@H]1OC(n2cnc3c(N)ncnc32)[C@H](O)[C@@H]1O (stereo partly specified)			
0.21	> 0	0.12	> 0	> 0	0.97	C=CC[C@]1(COP(=O)(O)O)OC(n2cnc3c(N)ncnc32)[C@H](O)[C@@H]1O (stereo partly specified)	4.6	8.1	
0.038	0	0.044	0	0	0.25	CC1(C)O[C@@H]2[C@H](O1)[C@@H](COP(=O)(O)O)O[C@H]2n1cnc2c(N)ncnc21	6.6	5.7	
0.085	> 0	0.13	> 0	> 0	0.34	CO[C@H]1[C@@H](O)[C@H](n2cnc3c(N)ncnc32)O[C@@H]1COP(=O)(O)O	4	2.6	
	100		100	100		Nc1ncnc2c1ncn2[C@@H]1O[C@H](COP(=O)(O)O)[C@@H](O)[C@H]1O			
0.05	24	0.042	7.1	18	0.17	Nc1nc(N)c2ncn([C@@H]3O[C@H](COP(=O)(O)O)[C@@H](O)[C@H]3O)c2n1	3.4	4	
0.015	0	0.015	0	0		CC[C@@H](OP(=O)(O)O)[C@H]1OC(n2cnc3c(N)ncnc32)[C@H](O)[C@@H]1O (stereo partly specified)			
0.025	0	0.021	0	0		CCC[C@@H](OP(=O)(O)O)[C@H]1OC(n2cnc3c(N)ncnc32)[C@H](O)[C@@H]1O (stereo partly specified)			
0.03	0	0.028	0	0	0.13	CC1O[C@@H]2[C@H](O1)[C@@H](COP(=O)(O)O)O[C@H]2n1cnc2c(N)ncnc21 (stereo partly specified)	4.3	4.6	
	0		0	0		CNc1ncnc2c1ncn2[C@@H]1O[C@H](COP(=O)(O)O)[C@@H](O)[C@H]1O			inhibition [9]: 15%; inhibition [10]: 15%
	0		0	0		CCSc1nc2c(N)ncnc2n1C1O[C@H](COP(=O)(O)O)[C@@H](O)[C@H]1O (stereo partly specified)			
	0		0	0		Nc1ncnc2c1ncn2C(CO)OC(CO)COP(=O)(O)O (stereo unspecified)			
0.057	> 0		> 0		0.64	CC[C@H](OP(=O)(O)O)[C@H]1OC(n2cnc3c(N)ncnc32)[C@H](O)[C@@H]1O (stereo partly specified)	11.2		Relative Vmax [11]: 2.4
0.022	> 0	0.017	> 0	> 0	0.14	CO[C@@H]1[C@H](O)[C@@H](COP(=O)(O)O)O[C@H]1n1cnc2c(N)ncnc21	6.4	8.2	
0.032	21	0.036	2.2	11.2	0.14	Nc1ncnc2c1ncn2[C@@H]1O[C@H](CCP(=O)(O)O)[C@@H](O)[C@H]1O	4.4	3.9	

Inhibition index [1]	Relative Vmax [2]	Inhibition index [3]	Relative Vmax [4]	Relative Vmax [7]	Inhibition index [8]	Compound	Relative inhibition index [5]	Relative inhibition index [6]	other results
0.05		0.057	2.1	12	0.29	Nc1ncnc2c1ncn2[C@@H]1O[C@H](/C=C/P(=O)(O)O)[C@@H](O)[C@H]1O	5.8	5.1	Relative Vmax [12]: 13
0.0082	> 0	0.008	0	> 0		C[C@@H](OP(=O)(O)O)[C@H]1OC(n2cnc3c(N)ncnc32)[C@H](O)[C@@H]1O (stereo partly specified)			
0.062	8	0.1	1	7	0.28	C[C@H](OP(=O)(O)O)[C@H]1OC(n2cnc3c(N)ncnc32)[C@H](O)[C@@H]1O (stereo partly specified)	4.7	2.8	
						Adenylate kinase 2, mitochondrial (Rattus norvegicus) (from UniProt P29410)			Km [13]: 1300 µM; Km [14]: 1400 µM; Km [15]: 910 µM; Km [16]: 1600 µM; Km [17]: 1600 µM; Km [18]: 1100 µM; Km [19]: 2500 µM; Km [20]: 3000 µM; Km [21]: 1600 µM; Km [22]: 80 µM
0.027	10	0.022	0.7	9.7	0.2	CNc1nc(N)c2ncn([C@@H]3O[C@H](COP(=O)(O)O)[C@@H](O)[C@H]3O)c2n1	7.4	9.1	
0.014	0	0.017	0.04	0	0.077	CN(C)c1nc(N)c2ncn(C3O[C@H](COP(=O)(O)O)[C@@H](O)[C@H]3O)c2n1 (stereo partly specified)	5.5	4.5	
0.03	0	0.032	0	0	0.089	CCC1O[C@@H]2[C@H](O1)[C@@H](COP(=O)(O)O)O[C@H]2n1cnc2c(N)ncnc21 (stereo partly specified)	3	2.8	
	> 0		> 0	> 0		CSc1nc(N)c2ncn([C@@H]3O[C@H](COP(=O)(O)O)[C@@H](O)[C@H]3O)c2n1			
	0		0	0		CC(=O)NCCNc1ncnc2c1ncn2C1O[C@H](COP(=O)(O)O)[C@@H](O)[C@H]1O (stereo partly specified)			
0.073	0.82	0.096	> 0		0.41	CCC[C@H](OP(=O)(O)O)[C@H]1OC(n2cnc3c(N)ncnc32)[C@H](O)[C@@H]1O (stereo partly specified)	5.6	4.3	Relative Vmax [11]: 1.3
0.05	7.5	0.05	0.13	5.8	0.21	Nc1nc(Cl)nc2c1ncn2[C@@H]1O[C@H](COP(=O)(O)O)[C@@H](O)[C@H]1O	4.2	4.2	
	0	0.11	0	0	0.12	Nc1ncnc2c1ncn2[C@@H]1O[C@H](COS(=O)(=O)O)[C@@H](O)[C@H]1O		1.1	
	0		0	0		Cn1cnc2c(ncn2[C@@H]2O[C@H](COP(=O)(O)O)[C@@H](O)[C@H]2O)c1=N			
	2.7	0.015	0.4		0.14	CCNc1nc(N)c2ncn([C@@H]3O[C@H](COP(=O)(O)O)[C@@H](O)[C@H]3O)c2n1		9.3	
	0		0	0		Nc1ncnc2c1nc(Br)n2[C@@H]1O[C@H](COP(=O)(O)O)[C@@H](O)[C@H]1O			
